Measurements published in patent US20040101484A1, “Nasal delivery of apomorphine in combination with glycol derivatives” (priority 1998, published 2004).

How the values were obtained:
healthy male subjects = assay: Adverse nasal effects after nasal administration of apomorphine HCl formulations to male subjects (Examples 1-6); type: in vivo, human
Description: A series of experiments were performed to illustrate features and advantages of the present invention. Several conditions were common to each experiment. […] Further, none of the subjects took any medication for two weeks prior to these experiments.
A different dosage of apomorphine was administered in each experiment to determine a preferred range of dosages having minimal adverse effects.

[1] = system: patients suffering from psychogenic erectile dysfunction; assay: In-clinic efficacy and safety study of nasal apomorphine HCl, double blind double dummy placebo controlled cross over, self graded questionnaire; type: in vivo, human; conditions: nasal administration, containing propylene glycol
[2] = system: patients suffering from erectile dysfunction; conditions: intranasal delivery, 2.5 mg to 3.5 mg; cited from earlier work
[3] = 0.5 mg, without glycol derivatives, three subjects
[4] = 2.0 mg, without glycol derivatives, nine subjects

In the case of CN1CCc2cccc3c2[C@H]1Cc1ccc(O)c(O)c1-3 [apomorphine], the “Adverse nasal effects (overall conclusion)” value (from here on “Adverse nasal effects”) (healthy male subjects; 0.5 mg, does not contain glycol derivatives) is reported as “some adverse nasal effects”, the “Number of subjects who did not suffer any symptoms” value (healthy male subjects; [3]) is reported as “One” and the “Number of subjects who suffered from mild nasal burning or pain” value (healthy male subjects; [3]) is reported as “two”. The “Adverse nasal effects” value (healthy male subjects; 1.0 mg dose, does not contain glycol derivatives) was “some adverse nasal effects”, the “Adverse nasal effects” value (healthy male subjects; 1.0 mg, composition with propylene glycol (Table 5), six subjects) was “none of the subjects suffered from adverse nasal effects” and the “Adverse nasal effects” value (healthy male subjects; 2.0 mg, composition with propylene glycol (Table 6), six subjects) was “none of the subjects suffered from adverse nasal effects”. For the same compound, the “Adverse nasal effects” value (healthy male subjects; 2.0 mg, without glycol derivatives) was “some adverse nasal effects”, the “Number of subjects who suffered from mild nasal burning” value (healthy male subjects; [4]) was “One” and the “Number of subjects who suffered from mild to moderate nasal burning” value (healthy male subjects; [4]) was “one”. The “Number of subjects who suffered from mild unusual taste” value (healthy male subjects; [4]) was “four”, the “Adverse nasal effects” value (healthy male subjects; 4.0 mg, does not contain glycol derivatives) was “some adverse nasal effects” and the “Number of subjects who experienced moderate sneezing, somewhat troublesome” value (healthy male subjects; 4.0 mg, does not contain glycol derivatives, two subjects) was “One”. The “Induction of an erection (overall conclusion)” value [1] was “effective in inducing an erection”, the “Induction of an erection compared with nasal placebo or Viagra” value ([1]; listed as apomorphine HCI) was “more effective than a nasal placebo or Viagra in inducing an erection” and the “Induction of an erection compared with nasal placebo or Viagra” value ([1]; listed as apomorphine HCl) was “more effective than nasal placebo or Viagra in inducing an erection”. For the same compound, the Eliciting an erection [2] was “effective for eliciting an erection” and the “Side effects suffered by study participants” value [2] was “extensive and serious side effects including hypotension, nausea, vomiting, impaired vision, diaphoresis and ashen coloring”.
